Measurements reported in patent publication US10253039B2, “Inhibitors of bacterial DNA gyrase with efficacy against gram-negative bacteria” (priority 2014, dated 2019).
Converted amounts (≈) assume the structure as drawn. Where two headings read alike, the source gives them in different places.

How the values were obtained:
Assay type in all cases: cell-based
Streptococcus pyogenes = assay: MIC, 20-strain panel
Description: (§1) A microdilution method in 96-well plates was used and the MIC protocol established by the Clinical Laboratory Standards Institute was followed. From a growing subculture, a 1:10000 inoculum of each strain in Luria-Bertani media was prepared and aliquoted 100 μL in 4 columns of wells, except for the top row wells, which contained 200 μL of inoculum. A solution of gyramide C2 was aliquoted into 3 of the wells containing 200 μL and DMSO was added to the 4th well. The liquid in each of wells was mixed with a multi-channel pipet and 100 μL was transferred to the next well and mixed. The 2-fold dilution was continued down the 96-well plate until 100 μL was left, which was discarded. The plates were incubated at 37° C. with shaking for 16-18 hours. The MIC was determined as the lowest concentration that inhibited growth and had no turbidity by visual inspection.
(§2) Minimum inhibitory concentrations of various gyramide compounds against 20 strains of bacteria were determined using the procedure described above.

Streptococcus agalactiae = assay: MIC, 20-strain panel
Description: as §1, §2

E. coli MG1655 = assay: MIC, 20-strain panel; conditions: Escherichia coli, MG1655, A: E. coli MG1655
Description: as §1, §2

[1] = system: Staphylococcus saprophyticus subsp. saprophyticus; assay: MIC, 20-strain panel
Description: as §1, §2

[2] = system: Staphylococcus aureus subsp. aureus; assay: MIC, 20-strain panel; conditions: H: Staphylococcus aureus subsp. aureus
Description: as §1, §2

[3] = system: Klebsiella pneumoniae subsp. pneumoniae; assay: MIC, 20-strain panel; conditions: E: Klebsiella pneumoniae subsp. pneumoniae
Description: as §1, §2

[4] = system: Salmonella enterica subsp. enterica typhimurium; assay: MIC, 20-strain panel; conditions: F: Salmonella enterica subsp. enterica Typhimurium
Description: as §1, §2

[5] = system: Staphylococcus epidermidis; assay: MIC, 20-strain panel
Description: as §1, §2

Shigella flexneri = assay: MIC, 20-strain panel; conditions: G: Shigella flexneri
Description: as §1, §2

E. coli JW5503 (deltolC) = assay: MIC, 20-strain panel; conditions: Escherichia coli, C: E. coli JW5503 (deltolC)
Description: as §1, §2

E. coli BW25113 = assay: MIC, microdilution in 96-well plates; conditions: Escherichia coli, BW25113, B: E. coli BW25113
Description: as §1, §2

Edwardsiella tarda = assay: MIC, microdilution in 96-well plates; conditions: D: Edwardsiella tarda
Description: as §1, §2

| Structure (SMILES) | MIC (Streptococcus pyogenes) [µg/mL] | MIC (Streptococcus agalactiae) [µg/mL] | MIC (E. coli MG1655) [µg/mL] | MIC [1] [µg/mL] | MIC [2] [µg/mL] | MIC [3] [µg/mL] | MIC [4] [µg/mL] | MIC [5] [µg/mL] | MIC (Shigella flexneri) [µg/mL] | MIC (E. coli JW5503 (deltolC)) [µg/mL] | MIC (E. coli BW25113) [µg/mL] | MIC (Edwardsiella tarda) [µg/mL] | MIC (E. coli MG1655; read-out: MIC) [µg/mL] | MIC ([2]; read-out: MIC) [µg/mL] | MIC (E. coli BW25113; read-out: MIC) [µg/mL] |
| --- | --- | --- | --- | --- | --- | --- | --- | --- | --- | --- | --- | --- | --- | --- | --- |
| N#Cc1ccc(Cl)c(S(=O)(=O)N[C@@H]2CCN(Cc3ccc(-c4ccccc4)cc3)C2)c1 [Compound 11] | > 8 | > 8 | > 8 | > 8 | > 8 | > 8 | 4 (≈ 8.85 µM) | > 8 | > 8 | < 0.062 | ~8 (≈ 17.7 µM) | > 8 |  |  |  |
| N#Cc1cccc(S(=O)(=O)N[C@@H]2CCN(Cc3ccc(-c4nccs4)cc3)C2)c1 [Compound 12] | > 8 | > 8 |  | > 8 |  | > 8 | > 8 | > 8 | > 8 | 2 (≈ 4.71 µM) |  | > 8 | > 8 | > 8 | > 8 |
| CC(C)(C)Oc1ccc(CN2CC[C@@H](NS(=O)(=O)c3cccc(C#N)c3)C2)cc1 [Compound 13] | > 8 | > 8 |  | > 8 |  | > 8 | > 8 | > 8 | > 8 | 8 (≈ 19.3 µM) |  | > 8 | > 8 | > 8 | > 8 |
| O=S(=O)(N[C@@H]1CCN(Cc2ccc(-c3ccncc3)cc2)C1)c1cccc(C(F)(F)F)c1 [Compound 14] | > 8 | > 8 |  | > 8 |  | > 8 | > 8 | > 8 | > 8 | 2 (≈ 4.33 µM) |  | > 8 | > 8 | > 8 | > 8 |
| O=S(=O)(N[C@@H]1CCN(Cc2ccc(-c3ccncc3)cc2)C1)c1cccc(OC(F)(F)F)c1 [Compound 15] | > 8 | > 8 |  | > 8 |  | > 8 | > 8 | > 8 | > 8 | 4 (≈ 8.38 µM) |  | > 8 | > 8 | > 8 | > 8 |
| O=S(=O)(N[C@@H]1CCN(Cc2ccc(-c3ccccc3)cc2)C1)c1ncc[nH]1 [Compound 16] | > 8 | > 8 |  | > 8 |  | > 8 | 8 (≈ 20.9 µM) | > 8 | > 8 | 2 (≈ 5.23 µM) |  | > 8 | > 8 | > 8 | > 8 |
| N#Cc1cccc(S(=O)(=O)N[C@@H]2CCN(Cc3ccc(OC(F)(F)F)cc3)C2)c1 [Compound 17] | > 8 | > 8 |  | > 8 |  | > 8 | > 8 | > 8 | > 8 | 8 (≈ 18.8 µM) |  | > 8 | > 8 | > 8 | > 8 |
| CC(C)Oc1ccc(CN2CC[C@@H](NS(=O)(=O)c3cccc(C(F)(F)F)c3)C2)cc1 [Compound 18] | > 8 | > 8 |  | > 8 |  | > 8 | 8 (≈ 18.1 µM) | > 8 | > 8 | 0.5 (≈ 1.13 µM) |  | > 8 | > 8 | > 8 | > 8 |
| N#Cc1cc(S(=O)(=O)N[C@@H]2CCN(Cc3ccc(-c4ccccc4)cc3)C2)ccc1F [Compound 19] | > 8 | > 8 |  | > 8 |  | > 8 | 4 (≈ 9.18 µM) | > 8 | > 8 | 0.25 (≈ 0.574 µM) |  | > 8 | > 8 | > 8 | > 8 |
| N#Cc1cccc(S(=O)(=O)N[C@@H]2CCN(Cc3ccc(SC(F)(F)F)cc3)C2)c1 [Compound 20] | > 8 | > 8 |  | > 8 |  | > 8 | > 8 | > 8 | > 8 | 8 (≈ 18.1 µM) |  | > 8 | > 8 | > 8 | > 8 |
| O=S(=O)(N[C@@H]1CCN(Cc2ccc(-n3cccn3)cc2)C1)c1cccc(OC(F)(F)F)c1 [Compound 21] | > 8 | > 8 |  | > 8 |  | > 8 | > 8 | 2 (≈ 4.29 µM) | > 8 | 2 (≈ 4.29 µM) |  | > 8 | > 8 | 8 (≈ 17.1 µM) | > 8 |
| N#Cc1cccc(S(=O)(=O)N[C@@H]2CCN(Cc3ccc(-c4cncnc4)cc3)C2)c1 [Compound 22] | > 8 | > 8 |  | > 8 |  | > 8 | > 8 | > 8 | > 8 | 8 (≈ 19.1 µM) |  | > 8 | > 8 | > 8 | > 8 |
| CC(C)(C)Oc1ccc(CN2CC[C@@H](NS(=O)(=O)c3cccc(C(F)(F)F)c3)C2)cc1 [Compound 23] | > 8 | > 8 |  | > 8 |  | > 8 | > 8 | > 8 | > 8 | 0.5 (≈ 1.1 µM) |  | > 8 | > 8 | > 8 | > 8 |
| N#Cc1cccc(S(=O)(=O)N[C@@H]2CCN(Cc3ccc(-c4cccc(Cl)c4)cc3)C2)c1 [Compound 24] | > 8 | > 8 |  | > 8 |  | > 8 | > 8 | > 8 | > 8 | 4 (≈ 8.85 µM) |  | > 8 | > 8 | > 8 | > 8 |
| N#Cc1cccc(S(=O)(=O)N[C@@H]2CCN(Cc3ccc(-c4cccs4)cc3)C2)c1 [Compound 25] | > 8 | > 8 |  | > 8 |  | > 8 | 4 (≈ 9.44 µM) | > 8 | > 8 | 0.25 (≈ 0.59 µM) |  | > 8 | ~8 (≈ 18.9 µM) | > 8 | ~8 (≈ 18.9 µM) |
| CC(C)(C)Oc1ccc(CN2CC[C@@H](NS(=O)(=O)c3cccc(OC(F)(F)F)c3)C2)cc1 [Compound 26] | > 8 | > 8 |  | > 8 |  | > 8 | > 8 | > 8 | > 8 | 0.5 (≈ 1.06 µM) |  | > 8 | > 8 | > 8 | > 8 |
| O=S(=O)(N[C@@H]1CCN(Cc2ccc(-c3ccccc3)cc2)C1)c1cccc(C(F)(F)F)c1 [Compound 27] | 8 (≈ 17.4 µM) | > 8 |  | > 8 |  | > 8 | 4 (≈ 8.69 µM) | 8 (≈ 17.4 µM) | > 8 | 0.5 (≈ 1.09 µM) |  | > 8 | > 8 | > 8 | > 8 |
| O=S(=O)(N[C@@H]1CCN(Cc2ccc(-c3cccc(Cl)c3)cc2)C1)c1cccc(OC(F)(F)F)c1 [Compound 28] | ~8 (≈ 15.7 µM) | > 8 |  | > 8 |  | > 8 | > 8 | 2 (≈ 3.91 µM) | > 8 | > 8 |  | > 8 | > 8 | > 8 | > 8 |
